In patent US20250144067A1, “PERSONALIZED STARVATION THERAPY FOR CANCER” (Faeth Therapeutics, Inc., priority 2021, published 2025):
Counter-ions that a name gives are not always drawn. Like-named read-outs stand apart in the source and are kept apart here. Peptide text beside a SMILES is read from it.

Columns and labels:
[1] = system: NCI-H292 lung cancer cells; test: FDA drug screening, complete media vs cholesterol-free media with simvastatin (TABLE 2); assay type: cell-based, human
[2] = system: NCI-H292 lung cancer cells; test: FDA drug screening, complete media vs cholesterol-free media without statin (TABLE 1); assay type: cell-based, human
[3] = NCI-H292 cells, drug in cholesterol-free media with simvastatin 0.04 μM
[4] = NCI-H292 cells, drug in complete media
[5] = complete media vs cholesterol-free media + simvastatin (0.04 μM), >0 enhanced anti-cancer activity, about 0 neutral, <0 antagonist
[6] = NCI-H292 cells, cholesterol-free media without statin, FDA drug library screen
[7] = NCI-H292 cells, complete media, FDA drug library screen
[8] = complete vs cholesterol-free media, >0 enhanced anti-cancer activity, about 0 neutral, <0 antagonist
[9] = NCI-H292 cells, FDA drug library screen, cholesterol-free media with simvastatin 0.04 μM
[10] = NCI-H292 cells, FDA drug library screen, complete media
[11] = NCI-H292 cells, FDA library drug in cholesterol-free media with simvastatin 0.04 μM
[12] = NCI-H292 cells, FDA library drug in complete media
[13] = Complete minus Cholesterol-free, greater than 0 enhanced anti-cancer activity, about 0 neutral, below 0 antagonist
[14] = NCI-H292 cells, FDA drug library screen, cholesterol-free media without statin
[15] = complete media minus cholesterol-free media + simvastatin, >0 enhanced anti-cancer activity, about 0 neutral, <0 antagonist
[16] = Complete minus Cholesterol-free, >0 enhanced anti-cancer activity, about 0 neutral, <0 antagonist
[17] = Complete minus Cholesterol-free, […]
[18] = complete media minus cholesterol-free media + simvastatin, […]
[19] = NCI-H292 cells, cholesterol-free media without statin
[20] = complete vs cholesterol-free media, greater than 0 enhanced anti-cancer activity, about 0 neutral, below 0 antagonists
[21] = NCI-H292 cells, cholesterol-free media with simvastatin 0.04 μM, FDA drug library screen (TABLE 2)
[22] = NCI-H292 cells, complete media, FDA drug library screen (TABLE 2)
[23] = complete media minus cholesterol-free media + simvastatin (0.04 μM), >0 enhanced anti-cancer activity, about 0 neutral, <0 antagonist
[24] = NCI-H292 cells, cholesterol-free media with simvastatin 0.04 μM, […]
[25] = NCI-H292 cells, complete media, […]

C[C@H](CCC(=O)O)[C@H]1CC[C@H]2[C@@H]3CC[C@@H]4C[C@H](O)CC[C@]4(C)[C@H]3C[C@H](O)[C@]12C [Deoxycholic acid sodium salt] was tested, and the “Cholesterol-free media + simvastatin (0.04 μM)” value [1, 3] was 0.8739, the “Complete Media” value [1, 4] was 0.7063 and the Difference [1, 5] was −0.17. For the same compound, the Cholesterol-free [2, 6] was 0.8045, the Complete [2, 7] was 0.9543 and the Difference [2, 8] was 0.15.

For NC(=O)CN1CCCC1=O [Piracetam], the “Cholesterol-free media + simvastatin (0.04 μM)” value [1, 9] was 1.178, the “Complete Media” value [1, 10] was 1.066 and the Difference [1, 5] was −0.11. For the same compound, the Difference ([2]; Complete minus Cholesterol-free, greater than 0 enhanced anti-cancer activity, about 0 neutral, below 0 antagonists) was −0.50, the Cholesterol-free ([2]; NCI-H292 cells in cholesterol-free media without statin) was 1.403 and the Complete ([2]; NCI-H292 cells in complete media) was 0.9062.

In the case of COc1ccc(-c2cc(=S)ss2)cc1 [Anethole (trithione)], the “Cholesterol-free media + simvastatin (0.04 μM)” value [1, 11] is reported as 1.972, the “Complete Media” value [1, 12] is reported as 1.115 and the Difference [1, 5] is reported as −0.86. For the same compound, the Difference [2, 13] was −0.18, the Cholesterol-free [2, 14] was 1.563 and the Complete [2, 10] was 1.382.

In the case of COc1cc(OC)c(C(=O)CCCN2CCCC2)c(OC)c1 [Buflomedil (hydrochloride)], the “Cholesterol-free media + simvastatin (0.04 μM)” value [1, 9] is reported as 0.7629, the “Complete Media” value [1, 10] is reported as 1.555 and the Difference [1, 15] is reported as 0.79. It also gave a Difference [2, 16] of −0.02, a Cholesterol-free [2, 6] of 0.6014 and a Complete [2, 7] of 0.5837.

In the case of CSCCNc1nc(SCCC(F)(F)F)nc2c1ncn2[C@@H]1O[C@H](COP(=O)([O-])OP(=O)([O-])C(Cl)(Cl)P(=O)([O-])[O-])[C@@H](O)[C@H]1O.[Na+].[Na+].[Na+].[Na+] [Cangrelor (tetrasodium)], the “Cholesterol-free media + simvastatin (0.04 μM)” value [1, 9] is reported as 1.209, the “Complete Media” value [1, 10] is reported as 1.098 and the Difference ([1]; complete media vs cholesterol-free media + simvastatin (0.04 μM), […]) is reported as −0.11. It also gave a Difference [2, 17] of −0.14, a Cholesterol-free [2, 14] of 1.189 and a Complete [2, 10] of 1.05.

In the case of Cn1nnnc1SCC1=C(C(=O)[O-])N2C(=O)[C@@H](NC(=O)[C@H](O)c3ccccc3)[C@H]2SC1.[Na+] [Cefamandole (sodium)], the “Cholesterol-free media + simvastatin (0.04 μM)” value [1, 11] is reported as 2.169, the “Complete Media” value [1, 12] is reported as 1.429 and the Difference [1, 5] is reported as −0.74. For the same compound, the Difference [2, 13] was −0.12, the Cholesterol-free [2, 14] was 1.243 and the Complete [2, 10] was 1.12.

With O=C(O)/C=C/c1ccc(Cn2ccnc2)cc1 [Ozagrel (hydrochloride)] the “Cholesterol-free media + simvastatin (0.04 μM)” value [1, 9] was 1.247, the “Complete Media” value [1, 10] was 1.131 and the Difference [1, 5] was −0.12. The Cholesterol-free [2, 6] was 0.9304, the Complete [2, 7] was 1.021 and the Difference [2, 8] was 0.09.

With CCOC(=O)n1ccn(C)c1=S [Carbimazole] the “Cholesterol-free media + simvastatin (0.04 μM)” value ([1]; NCI-H292 cells, cholesterol-free media with simvastatin 0.04 μM, cell growth value in FDA drug screen) was 1.468, the “Complete Media” value ([1]; NCI-H292 cells, complete media, cell growth value in FDA drug screen) was 1.519 and the Difference [1, 15] was 0.05. It also gave a Cholesterol-free [2, 6] of 1.183, a Complete [2, 7] of 1.469 and a Difference [2, 8] of 0.29.

With CC[C@H](C)[C@H](N)C1=N[C@H](C(=O)N[C@@H](CC(C)C)C(=O)N[C@H](CCC(=O)O)C(=O)N[C@H](C(=O)N[C@H]2CCCCNC(=O)[C@H](CC(N)=O)NC(=O)[C@@H](CC(=O)O)NC(=O)[C@H](Cc3cnc[nH]3)NC(=O)[C@@H](Cc3ccccc3)NC(=O)[C@H]([C@@H](C)CC)NC(=O)[C@@H](CCCN)NC2=O)[C@@H](C)CC)CS1 [Bacitracin] (HELM PEPTIDE1{[CC[C@H](C)[C@H](N)C1=N[C@H](C(=O)[*:2])CS1].L.[dE].I.K.[NCCC[C@@H](N[*:1])C(=O)[*:2]].I.[dF].H.[dD].N}$PEPTIDE1,PEPTIDE1,5:R3-11:R2$$$V2.0) the “Cholesterol-free media + simvastatin (0.04 μM)” value [1, 9] was 0.9407, the “Complete Media” value [1, 10] was 1.203 and the Difference [1, 18] was 0.26. It also gave a Cholesterol-free [2, 19] of 1.42, a Complete ([2]; NCI-H292 cells, complete media) of 1.094 and a Difference ([2]; complete vs cholesterol-free media, […]) of −0.33.

With Masitinib (mesylate) the “Cholesterol-free media + simvastatin (0.04 μM)” value [1, 9] was 1.086, the “Complete Media” value [1, 10] was 1.002 and the Difference [1, 5] was −0.08. For the same compound, the Difference [2, 13] was −0.14, the Cholesterol-free [2, 14] was 1.027 and the Complete [2, 10] was 0.8899.

With CCOC(=O)COc1ccc2c(=O)cc(-c3ccccc3)oc2c1 [Efloxate] the “Cholesterol-free media + simvastatin (0.04 μM)” value [1, 9] was 1.124, the “Complete Media” value [1, 10] was 0.9754 and the Difference [1, 5] was −0.15. For the same compound, the Cholesterol-free [2, 19] was 1.349, the Complete ([2]; NCI-H292 cells, complete media) was 0.929 and the Difference [2, 20] was −0.42.

In the case of CO[C@@H]1[C@@H](O[C@@H]2O[C@H](C)[C@@H](O[C@H]3C[C@@](C)(O)[C@@H](OC(=O)CC(C)C)[C@H](C)O3)[C@H](N(C)C)[C@H]2O)[C@@H](CC=O)C[C@@H](C)[C@@H](O)/C=C/C=C/C[C@@H](C)OC(=O)C[C@H]1OC(C)=O [Josamycin], the “Cholesterol-free media + simvastatin (0.04 μM)” value [1, 9] is reported as 0.9194, the “Complete Media” value [1, 10] is reported as 0.8246 and the Difference [1, 5] is reported as −0.09. It also gave a Cholesterol-free [2, 6] of 0.6797, a Complete [2, 7] of 1.216 and a Difference [2, 8] of 0.54.

With COc1ccc2cc1Oc1ccc(cc1)C[C@H]1c3c(cc4c(c3Oc3cc5c(cc3OC)CCN(C)[C@@H]5C2)OCO4)CCN1C [cepharanthine, reference compound] the “Cholesterol-free media + simvastatin (0.04 μM)” value [1, 9] was 0.1249, the “Complete Media” value [1, 10] was 1.4 and the Difference [1, 15] was 1.27. For the same compound, the Difference [2, 16] was 0.04, the Cholesterol-free [2, 6] was 1.12 and the Complete [2, 7] was 1.159.

In the case of COc1ccccc1OCC(O)CO (stereo not shown) [Guaifenesin], the “Cholesterol-free media + simvastatin (0.04 μM)” value [1, 9] is reported as 1.078, the “Complete Media” value [1, 10] is reported as 1.326 and the Difference [1, 15] is reported as 0.25. The Cholesterol-free [2, 19] was 1.204, the Complete ([2]; NCI-H292 cells, complete media) was 0.8523 and the Difference [2, 20] was −0.35.

For Cc1nccn1CCC(C(N)=O)(c1ccccc1)c1ccccc1 [Imidafenacin], the “Cholesterol-free media + simvastatin (0.04 μM)” value [1, 21] was 1.409, the “Complete Media” value [1, 22] was 1.383 and the Difference [1, 23] was −0.03. It also gave a Cholesterol-free [2, 6] of 0.8368, a Complete [2, 7] of 1.001 and a Difference [2, 8] of 0.16.

CC(C)[C@H](N)C(=O)O [L-Valine] was tested, and the “Cholesterol-free media + simvastatin (0.04 μM)” value [1, 24] was 0.8399, the “Complete Media” value [1, 25] was 0.8676 and the Difference [1, 18] was 0.03. For the same compound, the Difference [2, 17] was −0.26, the Cholesterol-free [2, 19] was 1.382 and the Complete ([2]; NCI-H292 cells, complete media) was 1.127.

With Nc1c2ccccc2nc2ccccc12 [9-Aminoacridine] the “Cholesterol-free media + simvastatin (0.04 μM)” value [1, 9] was 0.3257, the “Complete Media” value [1, 10] was 0.5257 and the Difference [1, 15] was 0.20. It also gave a Difference [2, 16] of −0.03, a Cholesterol-free [2, 6] of 0.5968 and a Complete [2, 7] of 0.5645.

CC(=O)OCC[N+](C)(C)C.[Cl-] [Acetylcholine (chloride)] was tested, and the “Cholesterol-free media + simvastatin (0.04 μM)” value [1, 3] was 0.9864, the “Complete Media” value [1, 4] was 0.8029 and the Difference [1, 5] was −0.18. For the same compound, the Cholesterol-free [2, 6] was 1.32, the Complete [2, 7] was 1.724 and the Difference [2, 8] was 0.40.

In the case of C=C[C@@H]1C[C@]1(NC(=O)[C@@H]1C[C@@H]2CN1C(=O)[C@H](C(C)(C)C)NC(=O)O[C@@H]1C[C@H]1CCCCCc1nc3ccc(OC)cc3nc1O2)C(=O)NS(=O)(=O)C1CC1.O [Grazoprevir], the “Cholesterol-free media + simvastatin (0.04 μM)” value [1, 24] is reported as 0.9215, the “Complete Media” value [1, 25] is reported as 0.9383 and the Difference [1, 18] is reported as 0.02. For the same compound, the Difference [2, 17] was −0.09, the Cholesterol-free [2, 14] was 1.057 and the Complete [2, 10] was 0.9626.

In the case of CN(Cc1ccc(C(C)(C)C)cc1)Cc1cccc2ccccc12 [Butenafine (Hydrochloride)], the “Cholesterol-free media + simvastatin (0.04 μM)” value [1, 21] is reported as 1.078, the “Complete Media” value [1, 22] is reported as 1.061 and the Difference [1, 23] is reported as −0.02. It also gave a Cholesterol-free [2, 19] of 1.694, a Complete ([2]; NCI-H292 cells, complete media) of 1.364 and a Difference [2, 20] of −0.33.

For Cc1ncc([N+](=O)[O-])n1CC(C)O (stereo not shown) [Secnidazole], the “Cholesterol-free media + simvastatin (0.04 μM)” value [1, 21] was 1.474, the “Complete Media” value [1, 22] was 1.409 and the Difference [1, 23] was −0.07. For the same compound, the Cholesterol-free [2, 6] was 1.105, the Complete [2, 7] was 1.528 and the Difference [2, 8] was 0.42.

In the case of Toremifene (citrate), the “Cholesterol-free media + simvastatin (0.04 μM)” value [1] is reported as 0.4491, the Difference [1] is reported as 0.61 and the Complete [2] is reported as 0.7656. For the same compound, the Difference [2] was −0.28.
